Assay results published in patent US5395823A, “Neuropeptide Y agonists and partial agonists” (Merrell Dow Pharmaceuticals Inc., priority 1993, dated 1995).

Biological target: receptors for neuropeptide Y (porcine spleen crude membranes)
Assay: 125I-Bolton-Hunter-neuropeptide Y binding in porcine spleen crude membranes
Settings: competition with 0.1 nM BHNPY, room temperature 2 hr, pH 7.4
Experimental: 145:21-9 (1988). ^125 I-Bolton-Hunter-neuropeptide Y (BHNPY; Amersham) binding was carried out in porcine spleen crude membranes. Membranes from frozen spleen were prepared as described previously for tachykinin peptide binding studies (Buck et al., 1984). An aliquot of membrane preparation (approximately 15 mg tissue) was incubated at room temperature for 2 hr in buffer (pH 7.4) containing the peptide analog, 130 mM NaCl, 2.7 mM KCl, 2 mM MgCl2, 1.8 mM CaCl2, 20 mM HEPES, 4 mg/ml BSA, 40 μg/ml bacitracin, 4 μg/ml leupeptin and […] chymostatin. BHNPY was included in a concentration of 0.1 nM and non-specific binding was determined by the inclusion of 1 μM pNPY. Samples were rapidly filtered over Whatman GF/C filters presoaked overnight in 0.5% histone (type II-AS; Sigma) and washed two times with ice-cold, plain HEPES-salt buffer (pH 7.4). IC50 values for test peptides were calculated from 6 to 10 point competition curves.

“Y--P--S--K--P--D--N--P--G--E--D--A--P--A--E--E--L--S--Y--Y--A--A--L--R--H- -Y--L--N--L--L--T--R--Q--R--Y--# [Example 1]” gave an IC50 of under 50 nM.
